Assay results reported in patent US20240207403A1, “PERSONALIZED IMMUNOTHERAPY USING INTESTINAL METABOLITES” (Evolve Biosystems, Inc., priority 2021, published 2024).

What was measured:
[1] = test system: Aryl hydrocarbon Receptor (AhR); settings: bifidobacteria-derived ILA; cited from earlier work
[2] = biological target: hydrocarboxylic acid receptor 3 (HCAR3) (Homo sapiens, UniProt P49019); settings: bifidobacteria-derived ILA; cited from earlier work
naïve CD4+ T-cells = assay: In vitro polarization of naïve CD4+ T-cells with fecal water, ILA or IFNβ, read out by targeted sc-mRNA-seq; assay type: cell-based, human; settings: for LGALS1 (Galectin-1) in Th0, Th2 and Th17 cells: ILA alone (1 mM) during polarization
Protocol: To evaluate the cellular states of polarized T-cells, the inventors applied a targeted multiomics approach quantifying 259 mRNA molecules with known functions in T-cells and 10 surface proteins detected by oligo-coupled antibodies (Abseq™, Rhapsody™, BD Biosciences) (Mair et al., 2020).
T-cell polarization experiments. PBMC derived CD3 CD4 CD45RA″ naïve T-cells (CD8/14/19/56 negative) into an enriched culture medium including RPMI 1640+10% FBS+NEAA+1% Pen-strep+55 μM β-mercaptoethanol. Cells are added at a concentration of 2×10^5 cells/ml and pre-washed and resuspended 2.5 ml T-Activator Dynabeads are added to obtain a bead:cell ratio of 1:2. One milliliter of bead/cell suspension was added to 24-well plate and the following polarizing supplements Th0: No cytokines, Th1: IL-12 (50 nanogram (ng)/ml), Anti-human IL-4 antibody (1 μg/ml) Th2: IL-4 (10 ng/ml), Anti-human IFN-γ antibody (1 μg/ml), Th17: IL-6 (50 ng/ml), IL-23 (20 ng/ml), IL-1B (10 ng/ml), TGF-β1 (5 ng/ml), Anti-hum IL-4 (1 μg/ml), Anti-human IFN-γ antibody (1 μg/ml), iTreg: TGF-β1 (5 ng/ml), IL-2 (10 ng/ml) IFN-β: IFN-β (10 ng/ml). Cells are incubated at 37 °C, 5% CO2 humidified incubator for 5 days and harvested.
Targeted transcriptome and protein by BD Rhapsody single cell RNA Sequencing. Polarized T cells in each condition were labeled using BD Single-Cell Multiplexing Kit and BD AbSeq Ab-Oligos reagents strictly following the manufacturers protocol (BD Biosciences). Briefly, cells from each experiment condition were labelled with each sample tag and pooled 18 AbSeqAb-Oligos. Each sample was then washed twice, counted and resuspended in cold BD SampleBuffer, then calculated the cell number in each sample, then pooled the required number of cells from each sample to get approximately 20,000 cells in 620 μl for each cartridge (around 9 samples for each cartridge). After priming the nanowell cartridges, the pooled sample was loaded onto BDRhapsody cartridges and incubated at room temperature. Cell Capture Beads were prepared and then loaded onto the cartridge. According to the manufacturers protocol, cartridges were washed, cells were lysed, and Cell Capture Beads were retrieved and washed prior to performing reverse transcription and treatment with Exonuclease I. cDNA Libraries were prepared using mRNA Targeted, Sample Tag, and BD AbSeq Library Preparation with the BD Rhapsody Targeted mRNA and AbSeq Amplification Kits and protocol. […] Quality and quantity of PCR products were determined by using an Agilent 2100 Bioanalyzer and Qubit Fluorometer using the Qubit dsDNA HS Kit (ThermoFisher). […] Quality of final libraries was assessed by using Agilent Bioanalyzer and quantified using a Qubit Fluorometer. […]

[3] = ILA alone (1 mM) instead of fecal water

hydrocarboxylic acid receptor 3 (HCAR3), sequence (P49019 whole entry): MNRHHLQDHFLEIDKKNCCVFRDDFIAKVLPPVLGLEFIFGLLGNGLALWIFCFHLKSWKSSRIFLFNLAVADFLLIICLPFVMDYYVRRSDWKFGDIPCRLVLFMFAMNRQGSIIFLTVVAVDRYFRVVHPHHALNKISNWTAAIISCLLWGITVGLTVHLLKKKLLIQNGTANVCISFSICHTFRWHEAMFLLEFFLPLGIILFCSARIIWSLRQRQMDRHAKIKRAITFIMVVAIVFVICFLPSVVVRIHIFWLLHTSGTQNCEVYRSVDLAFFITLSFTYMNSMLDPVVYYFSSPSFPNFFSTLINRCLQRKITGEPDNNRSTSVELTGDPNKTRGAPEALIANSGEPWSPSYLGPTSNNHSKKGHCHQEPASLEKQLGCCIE

## O=C(O)C(O)Cc1c[nH]c2ccccc12 (stereo not drawn) [ILA, Indole-3-lactic acid]
[1]
  binding to AhR: bind
[2]
  binding to HCAR3: bind
naïve CD4+ T-cells
  LGALS1 (Galectin-1) in Th0, Th2 and Th17 cells: strongly upregulated
naïve CD4+ T-cells; listed as indole-3-lactic acid
  LGALS1 (Galectin-1) in Th0, Th2 and Th17 cells: upregulated
naïve CD4+ T-cells; [3]
  CXCR3 mRNA in Th0, Th2 and Th17 cells: upregulated
  granzyme B mRNA in Th0, Th2 and Th17 cells: upregulated
